We go through one compound from US10597388B2, “Pyridazinone herbicides” (FMC CORPORATION, priority 2014, dated 2020).

The structures appear in SMILES notation. Read-outs that look alike come from different tables or passages of the source.

Holding throughout (assay): Test A greenhouse herbicide test, pre- and postemergence
Holding throughout (assay type): in vivo

Test [1] deals with ryegrass, Italian (Italian ryegrass, Lolium multiflorum). The following applies: Lolium multiflorum, 240 h; for pest or weed control at 125 g/ha: 125 g ai/ha, 0 to 100 scale where 0 is no effect and 100 is complete control; for pest or weed control at 500 g/ha: 500 g ai/ha, 0 to 100 scale. In short, it runs like this:
(§1)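 Seeds in loam–sand blend received a preemergence directed soil spray; plants at 2–10 cm, one- to two-leaf stage, received postemergence sprays. Compounds in a non-phytotoxic solvent with surfactant. After about 10 d in a greenhouse, injury rated visually versus untreated controls on a 0–100 scale (100 = complete control).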

The subject of test [2] is kochia (Kochia scoparia). The note with it: Bassia scoparia, 240 h; for pest or weed control at 125 g/ha: 125 g ai/ha, 0 to 100 scale where 0 is no effect and 100 is complete control; for pest or weed control at 500 g/ha: 500 g ai/ha, 0 to 100 scale. In short, it runs like this: as §1
For test [3], the system named is ragweed (common ragweed, Ambrosia elatior). The note with it: Ambrosia artemisiifolia, 240 h; for pest or weed control at 125 g/ha: 125 g ai/ha, 0 to 100 scale where 0 is no effect and 100 is complete control; for pest or weed control at 500 g/ha: 500 g ai/ha, 0 to 100 scale. Put shortly: as §1
The test system of test [4] is foxtail, giant (giant foxtail, Setaria faberii). The following applies: Setaria faberi, 240 h; for pest or weed control at 125 g/ha: 125 g ai/ha, 0 to 100 scale where 0 is no effect and 100 is complete control; for pest or weed control at 500 g/ha: 500 g ai/ha, 0 to 100 scale. In short, it runs like this: as §1
For test [5], the system named is wheat (Triticum aestivum). The following applies: Triticum aestivum, post-emergence, 240 h, Postemergence. In short, it runs like this: as §1
For test [6], the system named is pigweed (Amaranthus retroflexus). The following applies: Amaranthus retroflexus, 240 h; for pest or weed control at 125 g/ha: 125 g ai/ha, 0 to 100 scale where 0 is no effect and 100 is complete control; for pest or weed control at 500 g/ha: 500 g ai/ha, 0 to 100 scale. In short, it runs like this: as §1
The test system of test [7] is corn (Zea mays). The following applies: Zea mays, post-emergence, 240 h, Postemergence. In short, it runs like this: as §1

In the case of `COc1nn(C)c(=O)c(-c2c(C)c(C)cc3ccccc23)c1O` [Compound 46, 4-(2,3-dimethyl-1-naphthalenyl)-5-hydroxy-6-methoxy-2-methyl-3(2H)-pyridazinone], the pest or weed control at 125 g/ha in test [1] (post-emergence, Postemergence, read-out: Plant response rating, Ryegrass, Italian) came to 30%; in test [1] (pre-emergence, Preemergence, read-out: Ryegrass, Italian plant response rating), 30%; in test [2] (post-emergence, Postemergence, read-out: Plant response rating, Kochia), 30%; in test [2] (pre-emergence, Preemergence, read-out: Kochia plant response rating) it was 30%; in test [3] (post-emergence, Postemergence, read-out: Plant response rating, Ragweed), 80%; in test [3] (pre-emergence, Preemergence, read-out: Ragweed plant response rating), 50%. The pest or weed control at 125 g/ha in test [4] (post-emergence, Postemergence, read-out: Plant response rating, Foxtail, Giant) is 50%; in test [4] (pre-emergence, Preemergence, read-out: Foxtail, Giant plant response rating), 50%; in test [6] (post-emergence, Postemergence, read-out: Plant response rating, Pigweed), 70%; in test [6] (pre-emergence, Preemergence, read-out: Pigweed plant response rating) it was 30%. The pest or weed control at 500 g/ha in test [1] (post-emergence, Postemergence, 0 is no effect, 100 is complete control, read-out: Ryegrass, Italian plant response rating) was found to be 80%; in test [1] (pre-emergence, Preemergence, 0 no effect, 100 complete control, read-out: Plant response rating, Ryegrass, Italian), 50%; in test [2] (post-emergence, Postemergence, 0 is no effect, 100 is complete control, read-out: Kochia plant response rating) it was 40%; in test [2] (pre-emergence, Preemergence, 0 no effect, 100 complete control, read-out: Plant response rating, Kochia), 30%; in test [3] (post-emergence, Postemergence, 0 is no effect, 100 is complete control, read-out: Ragweed plant response rating), 90%; in test [3] (pre-emergence, Preemergence, 0 no effect, 100 complete control, read-out: Plant response rating, Ragweed), 80%. For the same compound, the pest or weed control at 500 g/ha in test [4] (post-emergence, Postemergence, 0 is no effect, 100 is complete control, read-out: Foxtail, Giant plant response rating) was 80%; in test [4] (pre-emergence, Preemergence, 0 no effect, 100 complete control, read-out: Plant response rating, Foxtail, Giant) it was 90%; in test [6] (post-emergence, Postemergence, 0 is no effect, 100 is complete control, read-out: Pigweed plant response rating), 90%; in test [6] (pre-emergence, Preemergence, 0 no effect, 100 complete control, read-out: Plant response rating, Pigweed), 100%. In addition, the plant injury at 125 g/ha in test [5] (125 g ai/ha, 0 to 100 scale where 0 is no effect and 100 is complete control, read-out: Plant response rating, Wheat) is 0%. Besides, the plant injury at 500 g/ha is 20% in test [5] (500 g ai/ha, 0 to 100 scale, 0 is no effect, 100 is complete control, read-out: Wheat plant response rating) and 0% in test [7] (500 g ai/ha, 0 to 100 scale, 0 is no effect, 100 is complete control, read-out: Corn plant response rating). The compound further yielded a Corn plant response rating (crop injury, 0 = no effect, 100 = complete kill) at 125 g/ha in test [7] (125 g ai/ha, 0 to 100 scale where 0 is no effect and 100 is complete control) of 0%.
